Values quoted from earlier work in US20020054924A1, “Novel compositions derived from cranberry and grapefruit and therapeutic uses therefor” (priority 2000, published 2002).

Test system: cholesterol
Settings: chickens

**Q.** Which “hypocholesterolemic effect compared with Lovastatin” value does the source give for tocotrienol [Extract T3] here?
**A.** twice as effective as Lovastatin™
